Laboratory results reported in patent US8106089B2, “Anti-tubulin acting arylpyrrol, arylfuran and arylthiophene derivatives, method for the preparation thereof and for the use thereof as an antimitotic” (Centre National de la Recherche, priority 2004, dated 2012).

Assays:
Format in all cases: cell-based
[1] = tested on: mouse leukemia (L1210) cells; assay: Cell cycle progression, flow cytometry after propidium iodide labeling; conditions: 24 hours
Description: (§1) In order to approach the mechanism of action of these compounds, we then studied their effect on the progression of the cell cycle in mouse melanoma (B16) cells and mouse leukemia (L1210) cells. For this purpose, we compared the distribution of the treated or untreated cells in each phase of the cycle. […] They then were fixed and made permeable with ethanol. After incubation with propidium iodide, which labels cellular DNA, the DNA content of the cells is then analyzed by flow cytometry.

[2] = tested on: mouse melanoma (B16) cells; assay: as above; conditions: for % of B16 cells in phase G1 / % of B16 cells in phase G2/M / % of B16 cells in phase S: 24 hours
Description: as §1

mel a melanocytes = assay: MTT test, cell growth; conditions: Mus musculus, Melanocyte, mean ± sd of 3 experiments in triplicate, read-out: IC50 (concentration that inhibits 50% of cell growth) ± sd
Excerpt: (§2) Aim: Given the role of tubulin in the formation of the mitotic spindle, we analyzed the effect of the compounds according to the present invention on the cell cycle of the following murine cells using various methods: the murine melanoma tumor cell line, the B16 F1 cell line and the mel a cell line (melanocytes), and the L1210 mouse leukemia cell line.
(§3) We initially evaluated the effect of compounds 17, 18 and 19 on the growth of the three cell lines by a “MTT” test. The principle of the MTT test consists of measuring the activity of mitochondrial succinate dehydrogenase in living cells. This enzyme transforms MTT (3-(4,5-dimethylthiazol-2-yl)-2,5-diphenyltetrazolium bromide), yellow in color, into insoluble purple formazan crystals. After dissolution of the crystals in dimethylsulfoxide (DMSO), absorbance is measured at 540 nm by spectrophotometry. The optical densities obtained are directly proportional to the number of living cells. The cytotoxic effect of a sample is evaluated by the percentage of living cells in the presence of this sample, compared to the cells treated with the solvent alone. This method makes it possible to measure the proportion of living cells in a given cell population. By comparison with untreated cells, we thus determined the concentration of each compound that induces a 50% inhibition of cell growth. The IC50 ranges from 50 μM to 100 μM.

B16 F1 cells = assay: MTT test, cell growth; conditions: Mus musculus, mean ± sd of 3 experiments in triplicate, read-out: IC50 (concentration that inhibits 50% of cell growth) ± sd
Excerpt: as §2, §3

[3] = tested on: L1210 mouse leukemia cells; assay: MTT test, cell growth; conditions: mean ± sd of 3 experiments in triplicate, read-out: IC50 (concentration that inhibits 50% of cell growth) ± sd
Excerpt: as §2, §3

Row | SMILES | IC50 (B16 F1 cells) [µM] | IC50 [3] [µM] | % of L1210 cells in phase G1 ([1]; 40 μM) [%] | % of L1210 cells in phase G2/M ([1]; 40 μM) [%] | % of L1210 cells in phase S ([1]; 40 μM) [%] | % of L1210 cells in phase G1 ([1]; 50 μM) [%] | % of L1210 cells in phase G2/M ([1]; 50 μM) [%] | % of L1210 cells in phase S ([1]; 50 μM) [%] | % of B16 cells in phase G1 ([2]; 50 μM) [%] | % of B16 cells in phase G2/M ([2]; 50 μM) [%] | % of B16 cells in phase S ([2]; 50 μM) [%] | IC50 (mel a melanocytes) [µM] | % of B16 cells in phase G1 ([2]; 75 μM) [%] | % of B16 cells in phase G2/M ([2]; 75 μM) [%] | % of B16 cells in phase S ([2]; 75 μM) [%] | also measured
1 | CC(C)c1cc(-c2ccccc2N)c(CCCO)n1C(=O)OC(C)(C)C [Compound 17, 3-(2-Amino-phenyl)-2-(3-hydroxy-propyl)-5-isopropyl-pyrrole-1-carboxylic acid tert-butyl ester] | 88.7 ± 7.6 | 53.7 ± 0.7 | 54.9 | 23.2 | 21.9 | 39.2 | 43.6 | 17.2 | 58.0 | 25.4 | 16.6 | 69.7 ± 0.9 |  |  |  | % of B16 cells in phase G1 ([2]; 70 μM): 40.8%; % of B16 cells in phase G2/M ([2]; 70 μM): 22.3%; % of B16 cells in phase S ([2]; 70 μM): 37%; % of B16 cells in phase G1 ([2]; 100 μM): 43.3%; % of B16 cells in phase G2/M ([2]; 100 μM): 16.5%; % of B16 cells in phase S ([2]; 100 μM): 40.3%
2 | CC(C)[C@@H](C=O)NC(=O)OC(C)(C)C [compound 2, (S)—N-(tert-Butoxycarbonyl)valinal] |  |  |  |  |  |  |  |  |  |  |  |  |  |  |  | higher proportion of cells in phase G2/M versus control ([2]; concentrations near IC50 or higher, cell line not stated): approximately 3 times
3 | CC(C)c1ccc(CCCO)[nH]1 [Compound 21, 3-(5-Isopropyl-1H-pyrrol-2-yl)-propan-1-ol] | > 400 | > 400 |  |  |  |  |  |  |  |  |  |  |  |  |  | 

Continued, in another order:

Row | IC50 (B16 F1 cells) [µM] | IC50 [3] [µM] | SMILES | % of L1210 cells in phase G1 ([1]; 40 μM) [%] | % of L1210 cells in phase G2/M ([1]; 40 μM) [%] | % of L1210 cells in phase S ([1]; 40 μM) [%] | % of L1210 cells in phase G1 ([1]; 50 μM) [%] | % of L1210 cells in phase G2/M ([1]; 50 μM) [%] | % of L1210 cells in phase S ([1]; 50 μM) [%] | % of B16 cells in phase G1 ([2]; 50 μM) [%] | % of B16 cells in phase G2/M ([2]; 50 μM) [%] | % of B16 cells in phase S ([2]; 50 μM) [%] | IC50 (mel a melanocytes) [µM] | % of B16 cells in phase G1 ([2]; 75 μM) [%] | % of B16 cells in phase G2/M ([2]; 75 μM) [%] | % of B16 cells in phase S ([2]; 75 μM) [%] | also measured
4 | 171 ± 10.8 | 33.2 ± 1.3 | CC(C)c1cc(-c2ccccc2)c(CCCO)[nH]1 [Compound 18, 3-(5-Isopropyl-3-phenyl-1H-pyrrol-2-yl)-propan-1-ol] | 32.7 | 12.6 | 54.7 |  |  |  |  |  |  |  | 65.0 | 12.1 | 11.3 | % of L1210 cells in phase G1 ([1]; 55 μM): 30.9%; % of L1210 cells in phase G2/M ([1]; 55 μM): 21.9%; % of L1210 cells in phase S ([1]; 55 μM): 47.2%; % of B16 cells in phase G1 ([2]; 125 μM): 50.0%; % of B16 cells in phase G2/M ([2]; 125 μM): 32.0%; % of B16 cells in phase S ([2]; 125 μM): 5.2%; % of B16 cells in phase G1 ([2]; 150 μM): 42.1%; % of B16 cells in phase G2/M ([2]; 150 μM): 36.0%; % of B16 cells in phase S ([2]; 150 μM): 21.8%
5 | 107 ± 1.8 | 17.7 ± 4.5 | CC(C)c1cc(-c2ccccc2N)c(CCCO)[nH]1 [Compound 19, 3-[3-(2-Amino-phenyl)-5-isopropyl-1H-pyrrol-2-yl]-propan-1-ol] |  |  |  | 49.5 | 24 | 26.5 | 78.7 | 5.2 | 14.1 | 116 ± 3.2 | 56.1 | 31.9 | 2.8 | % of L1210 cells in phase G1 ([1]; 75 μM): 39.8%; % of L1210 cells in phase G2/M ([1]; 75 μM): 38.8%; % of L1210 cells in phase S ([1]; 75 μM): 21.4%
